Consider 22 compounds from US20250074891A1 (Anaxis Pharma Pty Ltd., priority 2021, published 2025).

What all share (details): Table 35
One assay addresses MLKL (full length) (Homo sapiens (Human), UniProt Q8NB16). Nature of the assay: KINOMEscan binding assay, MLKL (full length). As to the method: (§1) Kinase assays. For most assays, kinase-tagged T7 phage strains were grown in parallel in 24-well blocks in an E. coli host derived from the BL21 strain. E. coli were grown to log-phase and infected with T7 phage from a frozen stock (multiplicity of infection=0.4) and incubated with shaking at 32° C. until lysis (90-150 minutes).
(§2) The Hill Slope was set to −1.

The target in another assay is RIP1 (Homo sapiens (Human), UniProt Q13546). Nature of the assay: KINOMEscan binding assay, RIP1.
The target in a further assay is RIP3 (Homo sapiens (Human), UniProt Q9Y572). Nature of the assay: KINOMEscan binding assay, RIP3. As to the method: as §1, §2
RIP3, sequence (Q9Y572 whole entry): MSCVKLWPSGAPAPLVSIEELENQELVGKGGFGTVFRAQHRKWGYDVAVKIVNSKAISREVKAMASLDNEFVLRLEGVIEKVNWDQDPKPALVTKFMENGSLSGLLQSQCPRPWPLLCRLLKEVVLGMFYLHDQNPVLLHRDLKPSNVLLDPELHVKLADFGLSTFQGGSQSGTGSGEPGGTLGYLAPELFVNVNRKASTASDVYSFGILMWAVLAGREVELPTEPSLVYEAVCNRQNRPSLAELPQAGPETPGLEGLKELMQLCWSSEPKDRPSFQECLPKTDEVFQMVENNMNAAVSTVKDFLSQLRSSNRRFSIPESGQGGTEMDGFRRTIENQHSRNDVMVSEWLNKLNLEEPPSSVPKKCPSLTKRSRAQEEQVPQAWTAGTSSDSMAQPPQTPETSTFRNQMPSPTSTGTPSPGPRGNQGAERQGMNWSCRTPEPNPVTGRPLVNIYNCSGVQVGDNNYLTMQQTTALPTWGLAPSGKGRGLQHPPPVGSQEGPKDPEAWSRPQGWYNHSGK

RIP1, sequence (Q13546 whole entry): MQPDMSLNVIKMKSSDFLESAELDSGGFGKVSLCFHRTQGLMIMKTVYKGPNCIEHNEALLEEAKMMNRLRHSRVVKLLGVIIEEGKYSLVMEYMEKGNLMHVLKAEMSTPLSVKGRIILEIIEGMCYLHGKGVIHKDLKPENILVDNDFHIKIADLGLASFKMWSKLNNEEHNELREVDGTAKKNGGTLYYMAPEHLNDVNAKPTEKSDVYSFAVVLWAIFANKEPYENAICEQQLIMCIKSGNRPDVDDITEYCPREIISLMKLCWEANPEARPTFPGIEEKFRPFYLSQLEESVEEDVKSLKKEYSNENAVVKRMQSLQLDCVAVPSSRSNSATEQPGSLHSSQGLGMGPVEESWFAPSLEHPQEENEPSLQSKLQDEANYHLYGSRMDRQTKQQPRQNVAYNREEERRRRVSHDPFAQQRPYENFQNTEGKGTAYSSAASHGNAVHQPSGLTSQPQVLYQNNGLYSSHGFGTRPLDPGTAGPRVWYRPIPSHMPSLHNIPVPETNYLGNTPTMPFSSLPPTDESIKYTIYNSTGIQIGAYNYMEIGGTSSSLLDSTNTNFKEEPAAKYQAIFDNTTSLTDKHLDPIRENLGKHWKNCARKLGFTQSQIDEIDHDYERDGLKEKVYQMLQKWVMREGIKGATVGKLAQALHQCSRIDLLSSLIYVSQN
MLKL (full length), sequence (Q8NB16 whole entry): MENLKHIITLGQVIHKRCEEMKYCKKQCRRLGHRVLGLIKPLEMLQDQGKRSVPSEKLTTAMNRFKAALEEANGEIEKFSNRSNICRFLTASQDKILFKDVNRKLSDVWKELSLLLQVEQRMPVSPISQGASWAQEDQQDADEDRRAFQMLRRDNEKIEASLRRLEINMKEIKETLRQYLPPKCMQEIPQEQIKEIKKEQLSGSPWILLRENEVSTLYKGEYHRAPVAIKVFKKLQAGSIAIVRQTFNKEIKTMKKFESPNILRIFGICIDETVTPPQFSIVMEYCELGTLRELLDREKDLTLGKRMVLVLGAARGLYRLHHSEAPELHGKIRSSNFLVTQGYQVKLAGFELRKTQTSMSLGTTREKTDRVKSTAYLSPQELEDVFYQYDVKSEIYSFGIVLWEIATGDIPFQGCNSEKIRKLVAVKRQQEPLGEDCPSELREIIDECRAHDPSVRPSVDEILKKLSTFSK

As to `Cc1cnc(Nc2[nH]nc(-c3ccc(NS(=O)(=O)C(F)F)c(O[C@@H](C)c4ccc(F)cc4)c3)c2C(N)=O)cn1` [Compound 245, 3-[4-(difluoro-methanesulfon-amido)-3-[(1S)-1-(4-fluorophenyl)ethoxy]phenyl]-5-[(5-methylpyrazin-2-yl)amino]-1H-pyrazole-4-carboxamide], the Kd on MLKL (full length) is < 0.01 µM; at RIP1 it was > 30 µM; at RIP3, > 30 µM.
With `NC(=O)c1c(-c2ccc(NS(=O)(=O)C(F)F)c(OCc3ccc(F)cc3)c2)n[nH]c1Nc1cnc(C(F)(F)F)cn1` [Compound 246, 3-[4-(difluoromethanesulfonamido)-3-[(4-fluorophenyl)methoxy]phenyl]-5-{[5-(trifluoromethyl)pyrazin-2-yl]amino}-1H-pyrazole-4-carboxamide], the Kd at MLKL (full length) is < 0.01 µM; at RIP1, > 30 µM; at RIP3, > 30 µM.
For the compound `C[C@H](Oc1cc(-c2n[nH]c(Nc3cccc(C(F)(F)F)n3)c2C(N)=O)ccc1NS(=O)(=O)CC(F)(F)F)c1ccc(F)cc1` [Compound 249, 3-{3-[(1S)-1-(4-fluorophenyl)ethoxy]-4-(2,2,2-trifluoroethane-sulfonamido)phenyl}-5-{[6-(trifluoromethyl)pyridin-2-yl]amino}-1H-pyrazole-4-carboxamide], the results for the Kd on MLKL (full length), on RIP1 and on RIP3 were < 0.01 µM, > 30 µM and > 30 µM, respectively.
On to `C[C@H](Oc1cc(-c2n[nH]c(Nc3cnccn3)c2C(N)=O)ccc1NS(=O)(=O)C(F)F)c1ccc(Cl)cc1` [Compound 252, 3-{3-[(1S)-1-(4-chlorophenyl)ethoxy]-4-(difluoromethanesulfonamido)phenyl}-5-[(pyrazin-2-yl)amino]-1H-pyrazole-4-carboxamide], for which the Kd on MLKL (full length) is < 0.01 µM; at RIP1, > 30 µM; on RIP3 it was > 30 µM.
Regarding `C[C@H](Oc1cc(-c2c(C(N)=O)c(Nc3cnccn3)nn2C)ccc1NS(=O)(=O)C(F)F)c1ccc(F)cc1` [Compound 253, 5-[4-(difluoromethanesulfonamido)-3-[(1S)-1-(4-fluorophenyl)ethoxy]phenyl]-1-methyl-3-[(pyrazin-2-yl)amino]-1H-pyrazole-4-carboxamide], the Kd on MLKL (full length) was < 0.01 µM; on RIP1 it was > 30 µM; at RIP3, > 30 µM.
As to `C[C@H](Oc1cc(-c2n[nH]c(Nc3cnccn3)c2C(N)=O)ccc1NS(=O)(=O)CC(F)(F)F)c1cccc(Cl)c1` [Compound 256, 3-{3-[(1S)-1-(3-chlorophenyl)ethoxy]-4-(2,2,2-trifluoroethane-sulfonamido)phenyl}-5-[(pyrazin-2-yl)amino]-1H-pyrazole-4-carboxamide], the Kd was < 0.01 µM on MLKL (full length), > 30 µM on RIP1 and > 30 µM on RIP3.
In the case of `NC(=O)c1cccc(Nc2[nH]nc(-c3ccc(NS(=O)(=O)C(F)F)cc3)c2C(N)=O)n1` [Compound 257, 6-({4-carbamoyl-3-[4-(difluoromethanesulfonamido)phenyl]-1H-pyrazol-5-yl}amino)pyridine-2-carboxamide], the Kd was < 0.01 µM on MLKL (full length), > 30 µM at RIP1 and > 30 µM at RIP3.
`N#Cc1cccc(Nc2[nH]nc(-c3ccc(NS(=O)(=O)C(F)F)cc3)c2C(N)=O)n1` [Compound 258, 5-[(6-cyanopyridin-2-yl)amino]-3-[4-(difluoromethanesulfonamido)phenyl]-1H-pyrazole-4-carboxamide]: the Kd at MLKL (full length) is < 0.01 µM; on RIP1, > 30 µM; on RIP3, > 30 µM.
Turning to `C[C@H](Oc1cc(-c2n[nH]c(Nc3cnccn3)c2C(N)=O)ccc1NS(=O)(=O)CC(F)(F)F)c1ccc(Cl)cc1` [Compound 259, 3-{3-[(1S)-1-(4-chlorophenyl)ethoxy]-4-(2,2,2-trifluoroethane-sulfonamido)phenyl}-5-[(pyrazin-2-yl)amino]-1H-pyrazole-4-carboxamide], the Kd was < 0.01 µM on MLKL (full length), > 30 µM on RIP1 and > 30 µM on RIP3.
Take `C[C@H](Oc1cc(-c2n[nH]c(Nc3ccccn3)c2C(N)=O)ccc1NS(=O)(=O)C(F)F)c1ccc(F)cc1` [Compound 260]: the dissociation constant Kd on MLKL (full length) was < 0.01 µM; at RIP1 it was > 30 µM; on RIP3, > 30 µM.
For `CCS(=O)(=O)Nc1ccc(-c2n[nH]c(Nc3cnccn3)c2C(N)=O)cc1OCc1ccccn1` [Compound 261, 3-{4-ethanesulfonamido-3-[(pyridin-2-yl)methoxy]phenyl}-5-[(pyrazin-2-yl)amino]-1H-pyrazole-4-carboxamide], the Kd is < 0.01 µM on MLKL (full length), > 30 µM on RIP1 and > 30 µM on RIP3.
For `NC(=O)c1c(-c2ccc(NS(=O)(=O)CC(F)(F)F)c(OCc3ccc(Cl)cn3)c2)n[nH]c1Nc1cnccn1` [Compound 262, 3-{3-[(5-chloropyridin-2-yl)methoxy]-4-(2,2,2-trifluoroethane-sulfonamido)phenyl}-5-[(pyrazin-2-yl)amino]-1H-pyrazole-4-carboxamide], the Kd on MLKL (full length) was < 0.01 µM; at RIP1, > 30 µM; on RIP3, > 30 µM.
As to `Cc1cnc(Nc2[nH]nc(-c3ccc(NS(=O)(=O)CC(F)(F)F)c(O[C@@H](C)c4ccc(F)cc4)c3)c2C(N)=O)cn1` [Compound 264, 3-{3-[(1S)-1-(4-fluorophenyl)ethoxy]-4-(2,2,2-trifluoroethanesulfonamido)phenyl}-5-[(5-methylpyrazin-2-yl)amino]-1H-pyrazole-4-carboxamide], the Kd on MLKL (full length) was < 0.01 µM; at RIP1, > 30 µM; at RIP3, > 30 µM.
On to `NC(=O)c1c(-c2ccc(NS(=O)(=O)CC(F)(F)F)c(OC(c3ccc(F)cc3)C3CCC3)c2)n[nH]c1Nc1cnccn1` (stereo not drawn) [Compound 266, 3-{3-[cyclobutyl(4-fluorophenyl)methoxy]-4-(2,2,2-trifluoroethanesulfonamido)phenyl}-5-[(pyrazin-2-yl)amino]-1H-pyrazole-4-carboxamide], for which the Kd on MLKL (full length) was < 0.01 µM; on RIP1, > 30 µM; at RIP3 it was > 30 µM.
Regarding `C[C@H](Oc1cc(-c2n[nH]c(Nc3cnccn3)c2C(N)=O)ccc1NS(=O)(=O)CC(F)(F)F)c1ccccn1` [Compound 267, 5-[(pyrazin-2-yl)amino]-3-{3-[(1S)-1-(pyridin-2-yl)ethoxy]-4-(2,2,2-trifluoroethanesulfonamido)phenyl]-1H-pyrazole-4-carboxamide], the dissociation constant Kd at MLKL (full length) is < 0.01 µM; at RIP1 it was > 30 µM; on RIP3 it was > 30 µM.
As for `NC(=O)c1c(-c2ccc(NS(=O)(=O)CC(F)(F)F)cc2)n[nH]c1Nc1ccccn1` [Compound 268, 5-[(pyridin-2-yl)amino]-3-[4-(2,2,2-trifluoroethanesulfonamido)phenyl]-1H-pyrazole-4-carboxamide], the Kd was < 0.01 µM on MLKL (full length), > 30 µM on RIP1 and > 30 µM on RIP3.
As for `NC(=O)c1c(-c2ccc(NS(=O)(=O)CC(F)(F)F)c(OCc3ccc(Cl)cc3)c2)n[nH]c1Nc1ccccn1` [Compound 269, 3-{3-[(4-chlorophenyl)methoxy]-4-(2,2,2-trifluoroethanesulfonamido)phenyl}-5-[(pyridin-2-yl)amino]-1H-pyrazole-4-carboxamide], the Kd on MLKL (full length) is < 0.01 µM; at RIP1 it was > 30 µM; on RIP3, > 30 µM.
As for `Cc1nn(C)cc1Nc1[nH]nc(-c2ccc(NS(=O)(=O)C(F)F)c(O[C@@H](C)c3ccc(F)cc3)c2)c1C(N)=O` [Compound 270, (S)-3-(4-((difluoromethyl)sulfonamido)-3-(1-(4-fluorophenyl)ethoxy)phenyl)-5-((1,3-dimethyl-1H-pyrazol-4-yl)amino)-1H-pyrazole-4-carboxamide], the Kd on MLKL (full length) is < 0.01 µM; on RIP1, > 30 µM; on RIP3, > 30 µM.
Consider `C[C@@H](Oc1cc(-c2n[nH]c(Nc3cnccn3)c2C(N)=O)ccc1NS(=O)(=O)C(F)F)c1ccc(F)cc1` [Compound 271, (R)-3-(4-((difluoro-methyl)sulfon-amido)-3-(1-(4-fluorophenyl)ethoxy)phenyl)-5-(pyrazin-2-ylamino)-1H-pyrazole-4-carboxamide], for which the equilibrium dissociation constant (Kd) at MLKL (full length) was < 0.01 µM; on RIP1, > 30 µM; at RIP3, > 30 µM.
`CCc1cc(Nc2[nH]nc(-c3ccc(NS(=O)(=O)C(F)F)c(O[C@@H](C)c4ccc(F)cc4)c3)c2C(N)=O)no1` [Compound 274, (S)-3-(4-((difluoromethyl)sulfonamido)-3-(1-(4-fluorophenyl)ethoxy)phenyl)-5-((5-ethylisoxazol-3-yl)amino)-1H-pyrazole-4-carboxamide]: the Kd was < 0.01 µM at MLKL (full length), > 30 µM on RIP1 and > 30 µM at RIP3.
Regarding `NC(=O)c1c(-c2ccc(NS(=O)(=O)C(F)F)c(OCc3nccs3)c2)n[nH]c1Nc1cnccn1` [Compound 275, 3-(4-((difluoro-methyl)sulfon-amido)-3-(thiazol-2-ylmethoxy)phenyl)-5-(pyrazin-2-ylamino)-1H-pyrazole-4-carboxamide], the Kd was < 0.01 µM at MLKL (full length), > 30 µM at RIP1 and > 30 µM at RIP3.
For `C[C@H](Oc1cc(-c2n[nH]c(Nc3cc(C4(C)CC4)on3)c2C(N)=O)ccc1NS(=O)(=O)C(F)F)c1ccc(F)cc1` [Compound 276, (S)-3-(4-((difluoromethyl)sulfonamido)-3-(1-(4-fluorophenyl)ethoxy)phenyl)-5-((5-(1-methylcyclopropyl)isoxazol-3-yl)amino)-1H-pyrazole-4-carboxamide], the dissociation constant Kd at MLKL (full length) was < 0.01 µM; on RIP1, > 30 µM; at RIP3, > 30 µM.
